Measurements: US20240410831A1, “Multi-Mode Zinc-Selective Emission-Ratiometric Fluorescent Probes for Biological Application” (Georgia Tech Research Corporation, priority 2023, published 2024)

Tests used:
[1] = Metal-ion selectivity measurement (emission-ratiometric response); assay type: physicochemical; conditions: liposomes, pH 7.0
Procedure: FIG. 5C illustrates an exemplary table providing exemplary photophysical properties of Formula I, Formula II, and/or a derivative thereof (e.g., for example probe 8) and its Zn(II)-probe complex in PIPES buffer containing 100 μM of 4:1 DMPC:DMPG liposomes (pH 7.0, 10 mM PIPES, 0.1 M KCl, 25° C.). The fluorescence response of the probe 8 (10 PM) was measured in the presence of 100 μM 4:1 DMPC:DMPG liposomes (pH 7.0, 10 mM PIPES, 0.1 M KCl, 25° C.) and an excess of selected biologically relevant divalent metal ions (FIG. 5A). […]
A solution of Formula I, Formula II, and/or a derivative thereof (e.g., for example probe 8) (10 μM) in Chelex®-PIPES buffer (10 mM, 0.1 M KCl, pH 7.0, 25° C.) containing 100 μM of liposomes (4:1 mixture of DMPC and DMPG) prepared in a quartz cuvette with a 1-cm pathlength. A fluorescence spectrum was acquired over the spectral window of 415-700 nm with excitation at 405 nm. Under magnetic stirring, the solution was supplemented with each divalent metal cation (8.0 μM, which corresponds to 80% fractional saturation of the probe, or 2.0 mM Ca(II) and Mg(II) ions), and a fluorescence spectrum was immediately acquired. […] The fluorescence spectrum was acquired after 10 min equilibration to ensure complete formation of the probe 8 Zn(II)-complex. […]

[2] = Fluorometric Zn(II) titration in PIPES buffer with DMPC:DMPG liposomes; assay type: physicochemical; conditions: pH 7.0 buffer, 100 μM liposomes, excitation at 405 nm
Procedure: To investigate the capability of Formula I, Formula II, and/or a derivative thereof (e.g., for example probe 8) as a dual-mode excitable Zn(II)-selective fluorescent indicator, fluorometric Zn(II)-titrations were performed with excitation at 405 nm. Comprehensive spectroscopic analysis of Formula I, Formula II, and/or a derivative thereof (e.g., for example probe 8) was performed in the presence of liposomes as a biological model-membranes composed of a 4:1 ratio of zwitterionic dimyristoyl […] (DMPC) and anionic dimyristoyl phosphatidylglycerol (DMPG). The probe was directly diluted from a DMSO stock solution into the pH 7.0 buffer containing 100 μM liposomes. […]
A solution of Formula I, Formula II, and/or a derivative thereof (e.g., for example probe 8) (10 μM) in analytical grade MeOH prepared in a quartz cuvette with a 1-cm pathlength was titrated with Zn(OTf)2 (from a 0.3 mM aqueous stock solution) in 1.0 μM (0.1 molar equiv.) increments. After each aliquot of Zn(II), the solution was equilibrated for 1 minute by magnetic stirring, and an absorbance (spectral window: 250-500 nm) and fluorescence spectrum (excitation at 395 nm, spectral window 405-705 nm) were acquired. […] After each aliquot of Zn(II), the solution was equilibrated for 1 minute by magnetic stirring, and a fluorescence spectrum (excitation: 405 nm, spectral window 420-700 nm) was acquired.

- emission maximum ([2]; after Zn(II) addition): 515 nm
- emission maximum ([2]; free probe): 480 nm
SMILES: COc1ccc2c(c1)C(C)(C)c1nc(-c3cccc(CN(Cc4ncccn4)Cc4ncccn4)n3)sc1-2 [probe 8]
- fluorescence response to Ca(II) and Mg(II) ([1]; 2.0 mM of either metal ion): Neither Ca(II) nor Mg(II) resulted in any significant fluorescence change
- fluorescence response to divalent transition metals ([1]; 0.8 molar equivalents of metal, 10 μM probe): quenching of the fluorescence
